First: COc1cc2c(cc1OC)C(CNC=O)c1ccccc1CC2 (configuration not stated)
Second: NC1=NS(=O)N=C1NCCCN1c2ccccc2CCc2ccccc21 (configuration not stated)
The melting point of the first is lower: 118 to 119 °C for the first, 227 to 230 °C for the second.

First: COc1c(N2CCC(O)C2)c(F)cc2c(=O)c(C(=O)O)cn(C3CC3)c12 (configuration not stated)
Second: Nc1c(F)c(F)cc2c1c(=O)c(C(=O)O)cn2C1CC1
The melting point of the first is lower: 253 to 254 °C for the first, > 300 °C for the second.

First: COc1c(C)c(C)c(OC)c(C(O)(c2ccc(N3CCOCC3)cc2)C(C)C)c1C (configuration not stated)
Second: Cc1c(C)c2c(c(C)c1OC(=O)CCC(=O)O)CCC(C)(COc1ccc(CC3SC(=O)NC3=O)cc1)O2 (configuration not stated)
The melting point of the first is lower: 191 to 193 °C for the first, 197 to 202 °C for the second.

First: COc1cc(F)ccc1OCC#Cc1ccc(Cl)nc1
Second: Cc1cc(Cl)ccc1OCc1ccccc1C(O)c1nccn1C (configuration not stated)
The melting point of the first is lower: 86 to 87 °C for the first, 159 to 160 °C for the second.

First: O=S1(=O)N=CN(C2CC2)c2cc(Br)c(C(F)(F)F)cc21
Second: CC1(C)C(=O)N(c2ccc(C#N)c(C(F)(F)F)c2)C(=O)N1CCCC(=O)O
The melting point of the first is higher: 204 to 206 °C for the first, 179 to 180 °C for the second.

First: COC(=O)C(OC)(OC)C(=O)Nc1cc(Cl)cc(Cl)c1
Second: COCC(C)(C)NC(=O)C(OC)Oc1ccc2ccc(Br)cc2c1 (configuration not stated)
The melting point of the first is higher: 160 to 164 °C for the first, 65 to 67 °C for the second.

First: CS(=O)(=O)c1ccc(Oc2ccccc2CC(=O)O)cc1
Second: Cc1nc(NC(=O)c2ccccc2)sc1C(=O)NCc1ccccc1Cl
The melting point of the first is lower: 125 to 127 °C for the first, 191 to 193 °C for the second.

Compared with `CN(C(=O)CCS(C)(=O)=O)c1nnc(-c2cccnc2)s1`, `Cc1nnc2ccc(-c3cccc(Cl)c3)nn12` is lower in melting point: 199 to 201 °C for the first, 165 to 167 °C for the second.

First: COc1ccc(/C=C(\C#N)c2ccsc2)cc1OC1CCCC1
Second: O=Cc1cccc(/C=C/c2nc(C3CCC3)cs2)c1
The melting point of the first is higher: 83 to 84 °C for the first, 78 to 80 °C for the second.

First: CCCCNC(=O)NC(N)=O
Second: CCOC(=O)NCC#N
The melting point of the first is higher: 129 to 131 °C for the first, 49 °C for the second.

Compared with `C[Si](C)(C)c1ccc2cc(C(=O)Nc3ccc(N4CCC4)nc3)n(Cc3cccc(F)c3)c2c1`, `CCOc1cc(-c2cc(C(F)(F)F)n3ncc(C(=O)Nc4cccc(S(=O)(=O)N5CCOCC5)c4)c3n2)ccc1C(F)(F)F` is higher in melting point: 208 to 210 °C for the first, 235 °C for the second.

First: Clc1nc(Cl)c2[nH]nnc2n1
Second: COc1ccc2[nH]c(SCc3ncc(C)c(N4CCCCC4)c3Cl)nc2c1
The melting point of the first is higher: > 260 °C for the first, 154 to 156 °C for the second.

Compared with `Cc1c(-c2ccncc2)[nH]c2ccc(C3=NNC(=O)CC3C)cc12` (configuration not stated), `CCn1c(C(c2ccccc2)c2ccccc2)nc(-c2ccncc2)c1-c1ccc(Cl)cc1` is lower in melting point: 233 to 235 °C for the first, 199 to 200 °C for the second.

First: Brc1cccc(C2Cc3cnc(Nc4ccc(CCNCc5ccccc5)cc4)nc3-c3ccccc32)c1 (configuration not stated)
Second: O=C(CNCc1cccc(-c2ccc(CC(Nc3ccccc3C(=O)c3ccccc3)C(=O)O)cc2)c1)c1ccccc1 (configuration not stated)
The melting point of the first is higher: 98 to 100 °C for the first, 90 °C for the second.

Compared with `O=Cc1cc2c(ccc3ccoc32)c2ccccc12`, `O=Cc1c2ccccc2cc2oc3ccccc3c12` is lower in melting point: 164 to 166 °C for the first, 128 to 132 °C for the second.

Compared with `O/N=C\c1cccc(Cl)c1`, `C=Cc1ccc(OC(=O)C(Cl)(Cl)Cl)cc1` is lower in melting point: 64 to 66 °C for the first, 37 to 39 °C for the second.

Compared with `COc1cc(-c2cc(-c3ccc(-c4c(Cc5ccccc5)sc5ccccc45)cc3)ccc2OCC(=O)O)cc(OC)c1OC`, `CN(C(=O)OC(C)(C)C)c1cc(Oc2ccc(-c3ccc(OCc4ccccc4)cc3)cc2)ccc1[N+](=O)[O-]` is higher in melting point: 93 to 94 °C for the first, 123 to 125 °C for the second.

First: O=C(O)[C@H](Cc1ccc(C(F)(F)F)cc1)[C@H](O)c1ccc(F)cc1 (racemic)
Second: Cn1c(CC#N)ccc1C(=O)c1ccc(C(F)(F)F)cc1
The melting point of the first is higher: 111 to 112 °C for the first, 95 to 97.5 °C for the second.

Compared with `CC(=O)Nc1ccc(CN(C)C2CCOCC2)cc1`, `O=C(C1CCN(c2ccncc2)CC1)N1CCN(Cc2ccc(Br)cc2)CC1` is higher in melting point: 105 to 106 °C for the first, 148 to 149 °C for the second.

First: CCCC(=O)O[C@H]1[C@H](OCc2ccccc2)[C@@H](OCc2ccccc2)[C@H](OCc2ccccc2)[C@@H](OCc2ccccc2)[C@]1(O)CCC (racemic)
Second: COC(=O)Cc1cc(C(=O)c2ccc3cc(-c4ccccc4)[nH]c3c2)sc1-c1ccccc1
The melting point of the first is lower: 143 °C for the first, 183 to 185 °C for the second.

Compared with `COc1ccc(-n2nc(Sc3ccc(Cl)cc3)c(C)c(C#N)c2=O)cc1`, `CCCCn1c(=O)c2c(NCC)n[nH]c2n(Cc2ccc(OC)cc2)c1=O` is higher in melting point: 146 to 148 °C for the first, 234 to 236 °C for the second.

First: CCOC(=O)c1ccccc1OCCCCCCCCCCC(=O)CCCCOc1ccc(Cl)cc1
Second: CCOC(=O)c1ccc(OCCCCC(=O)c2ccc(Cl)s2)cc1
The melting point of the first is higher: 95 to 96 °C for the first, 87 to 89 °C for the second.

First: O=C(CCCN1CCC(C(O)c2cccc3ccccc23)CC1)c1ccc(F)cc1 (configuration not stated)
Second: OC(CCN1CCN(c2ccc(F)cc2)CC1)c1cnn2c1CCCC2 (configuration not stated)
The melting point of the first is higher: 172 to 174 °C for the first, 130 to 131 °C for the second.

First: COc1ccc([N+](=O)[O-])cc1C(C#N)O[Si](C)(C)C (configuration not stated)
Second: CN1C(=O)C(Cc2ccccc2)Oc2ccc([N+](=O)[O-])cc21 (configuration not stated)
The melting point of the first is lower: 108 to 111 °C for the first, 166 to 169 °C for the second.

First: CCCCC(CC)COC(=O)CC(C(=O)OCC(CC)CCCC)S(=O)(=O)O (configuration not stated)
Second: Cc1nc(N)c2nc(C)n(CCCCCS(C)(=O)=O)c2c1C
The melting point of the first is lower: 70 °C for the first, 199 to 200 °C for the second.

Compared with `CN(C)[C@H]1CC[C@@H](C(=O)N2CCC(c3[nH]nc4c3C(=O)c3c(NC(=O)NN5CCOCC5)cccc3-4)CC2)CC1`, `O=C(CCN1CCOCC1)NCc1ccc2c(c1)-c1[nH]nc(-c3ccsc3)c1C2` is higher in melting point: 123 to 125 °C for the first, 228 to 230 °C for the second.

First: C#CCOc1cc([N+](=O)[O-])c(F)cc1Cl
Second: O=C1CCc2c(Oc3ccc([N+](=O)[O-])cn3)cccc21
The melting point of the first is lower: 88 to 89 °C for the first, 119 to 123 °C for the second.

Compared with `CN1CCN(C(=O)OC2c3ccccc3C(=O)N2c2ccc3ncccc3n2)CC1` (configuration not stated), `CCN1CCCC(NC(=O)Cn2c(-c3ccc(Br)cc3)nc3cccnc32)C1` (configuration not stated) is higher in melting point: 170 to 171 °C for the first, 190 to 192 °C for the second.

Compared with `Cc1nc2c(-c3cccc(N4CCN(CCO)CC4)c3)cnn2c(N)c1-c1ccc(F)c(F)c1`, `CCn1cc(C(=O)O)c(=O)c2cc(Cl)c(N3CCN(Cc4ccccc4)CC3)cc21` is higher in melting point: 172 to 174 °C for the first, 228 °C for the second.

Compared with `CCn1ncc2c3onc(-c4cccc(F)c4)c3cnc21`, `COc1cc(OC)cc(-c2ncoc2-c2ccc(N)cc2)c1` is higher in melting point: 136 to 137 °C for the first, 142 to 146 °C for the second.

First: Cc1c(F)c(F)c(F)c(F)c1C(=O)O
Second: CCCc1cccc(Cl)c1C(=O)N[C@@H](Cc1ccc(-c2c(C)n(C)c(=O)n(C)c2=O)cc1)C(=O)O
The melting point of the first is lower: 80 to 82 °C for the first, 205 to 209 °C for the second.

Compared with `Clc1ccc(-c2ccc(C(Cl)Cn3cncn3)cc2)cc1` (configuration not stated), `NS(=O)(=O)c1ccc(-n2nc(C(F)(F)F)cc2-c2ccc([N+](=O)[O-])cc2)cc1` is higher in melting point: 118 °C for the first, 173 to 175 °C for the second.

First: Cc1cc(C)c2c(c1)S(=O)(=O)NCN2
Second: Fc1cc(N2CCNCC2)c2ncccc2c1
The melting point of the first is higher: 160 to 165 °C for the first, 103 °C for the second.

First: CC(C)OC(=O)C1C2CCC(C2)C1n1cc(F)c(=O)[nH]c1=O (configuration not stated)
Second: C/C(=C(\C#N)C(N)=S)N1CCC(C)CC1
The melting point of the first is lower: 135 to 136 °C for the first, 156 to 159 °C for the second.

First: C(=C1CCc2cccnc21)c1ccccc1
Second: CCOc1ccc(C2(C(=O)O)CC2(C)C)cc1 (configuration not stated)
The melting point of the first is lower: 74 to 75 °C for the first, 104 to 105 °C for the second.

First: O=C(C1CO1)C(Cl)(Cl)Cl (configuration not stated)
Second: COC(=O)c1ccc(OCCCl)cc1
The melting point of the first is higher: 92 to 95 °C for the first, 56 to 58 °C for the second.

— a melting point compilation (Tetko et al.; mined from patent text by program, amines drawn as free bases though some values may be those of a salt)
